Source: patent US20140100290A1, “Method of treating a prostate condition” (priority 2012, published 2014)

Test system: cytochrome c release in PC-3 cells
Experiment: Western blot analysis of cytochrome c release in PC-3 cells
Format: cell-based, Human
Settings: 48 h
Procedure: Cell Line and Culture Conditions • Human metastatic, androgen insensitive prostate cancer cells, PC-3, were obtained from ATCC (Manassas, Va., USA). Cells were grown in F-12K medium supplemented with 2 mM glutamine, 10% FBS, 100 U/mL penicillin, and 100 μg/mL streptomycin. PC-3 cells were maintained in a humidified atmosphere of 5% CO2 at 37° C. in T-75 flasks and were subcultured when confluent.
Western blotting is a widely used analytical technique for detection of specific proteins separated from one another according to their size by gel electrophoresis. […] Once detected, the target protein will be visualized as a band on a blotting membrane, X-ray film, or an imaging system.
Cytochrome c is a heme-containing component of the electron transport chain in the mitochondrial membrane. […] In order to further confirm that carvacrol induced apoptosis in these cells, the release of cytochrome c from mitochondria into cytosol was analyzed using Western blot analysis in carvacrol-treated cells. […]
After maintaining constant agitation at 4° C. for 30 minutes, lysates were collected in microcentrifuge tubes and centrifuged at 12,000 rpm at 4° C. for 20 minutes. […] Protein concentration was determined using the Pierce® BCA protein assay kit. […] Western blot images are representative of at least 3 independent experiments, while quantification data represent mean±S.E.M. of n≧3 experiments.

Structure (SMILES): Cc1ccc(C(C)C)cc1O [Carvacrol]
- cytochrome c levels in cytosol (Western blot) (10 μM, compared to solvent control): Increase in cytochrome c levels in cytosol was observed
- cytochrome c levels (Western blot) (2000 μM, compared to 10 μM carvacrol-treated cells): decrease in levels of cytochrome c
